Earlier results as cited in patent US11141509B2, “Method for loading at least two powder substances into recesses provided at a stent surface” (CID S.p.A., priority 2016, dated 2021).

Settings: Cre8 coronary stent, Amphilimus formulation; Eurointervention 2012; 7:1087-1094

- in vivo release after coronary implantation: greater than 30 days
Compound: CO[C@H]1C[C@@H]2CC[C@@H](C)[C@@](O)(O2)C(=O)C(=O)N2CCCC[C@H]2C(=O)O[C@H]([C@H](C)C[C@@H]2CC[C@@H](O)[C@H](OC)C2)CC(=O)[C@H](C)/C=C(\C)[C@@H](O)[C@@H](OC)C(=O)[C@H](C)C[C@H](C)/C=C/C=C/C=C/1C [Sirolimus]
